The text below walks through data of US8962844B2, “1,3,4-oxadiazole and 1,3,4-thiadiazole β-lactamase inhibitors” (priority 2012, dated 2015).

Where a name gives a salt, the structure may show the parent alone.

Experiment [1] deals with bacterial strains that express the class D cephalosporinase OXA-15. The experiment in a line: Standard BLI potentiation MIC / synergy MIC (sMIC) assays run in the presence of a β-lactam, OXA-15 expressing strains. It is filed as cell-based, E. coli. The note with it: BLI in combination with a β-lactam; comparison with Avibactam (comparator compound CCC). From the text:
(§1) Unless otherwise indicated, the activity of the BLI compounds can be described by the MIC value obtained from a Synergy MIC assay or a BLI potentiation assay (e.g as described herein), both of which are run in the presence of a β-lactam.
(§2) A set of β-lactamase expressing isogenic E. coli strains was constructed by cloning a β-lactamase gene into a customized derivative of pBR322 (GenBank Accession Number J01749) and transforming the engineered plasmids into E. coli. The NdeI restriction site within the plasmid backbone of pBR322 was removed to generate pBR322 ΔNdeI. The pBR322 ΔNdeI vector itself, minus the blaTEM-1 gene, was amplified using two primers: (1) pBR-Pbla 5′-cgcatatgactettectttttcaatattattg-3, SEQ ID 1, a primer with an engineered NdeI restriction site at the 3′ end of the blaTEM-1 promoter and (2) pBR-vec-1 5′-[…]-3′, SEQ ID 2, a primer with an engineered BamHI restriction site at the 3′ end of the blaTEM-1 open reading frame. The chloramphenicol resistance gene, cat, was generated by PCR amplification from pKD3 (GenBank Accession Number AY048742) using primers with an engineered NdeI restriction site at the 5′ end (Pbla-cat 5′-[…]-3′, SEQ ID 3) and an engineered BamHI restriction site at the 3′ end (Vec-1-cat 5′-[…]-3′, SEQ ID 4) of the resistance gene. The two PCR products, pBR322 ΔNdeI and cat were ligated together generating pBR-CBST (pBR322 ΔNdeI ΔTEM-1::cat Seq. ID 5) which retains both the pBR322 tetracycline resistance cassette, tetA, and the plasmid origin of replication but the blaTEM-1 gene was replaced by the cat gene.
(§3) Using this engineering strategy a number of plasmids producing β-lactamase genes from different classes (see below) were generated using synthetic genes with an engineered NdeI restriction site at the 5′ end and BamHI restriction site at the 3′ end of each gene (GenScript). Both the synthetic β-lactamase genes and cat gene were ligated into the NdeI/BamHI sites of the pBR322 ΔNdeI PCR product and transformed into electrocompetent E. coli ElectroMax DH10B (Invitrogen/Life Technologies). E. coli DH10B harboring the recombinant plasmids were selected on LB agar (supplemented with 25 μg/mL tetracycline) and single isolated colonies were then inoculated into 5 mL LB media (supplemented with 25 μg/mL tetracycline), and incubated at 37° C. with aeration (250 rpm) for 18 hrs. The cultures were frozen back at −80° C. in 20% glycerol. The DNA sequence of the cloned β-lactamase genes was confirmed. The β-lactamase gene expression in the recombinant E. coli strains was driven by the blaTEM-1 promoter in the pBR-CBST plasmid and was characterized by MIC profiling of the E. coli recombinant strains against comparator β-lactam/BLI combinations in broth microdilution assay.
(§4) The experimental protocol was performed according to Clinical and Laboratory Standards Institute (CLSI) guidelines with modifications as described below (CLSI guidelines can be derived from the CLSI document M07-A9 published in January 2012: “Methods for Dilution Antimicrobial Susceptibility Tests for Bacteria That Grow Aerobically; Approved Standard-Ninth Edition”).
(§5) To prepare for MIC testing, frozen glycerol stocks of clinical isolates (Klebsiella pneumoniae, Eschericia coli, Enterobacter spp, Citrobacter spp, or Pseudomonas aeruginosa) were used to streak for isolated colonies on rich, non-selective, tryptic soy agar containing 5% sheep's blood (TSAB). Frozen glycerol stocks of laboratory engineered, isogenic E. coli strains, which contain cloned β-lactamase expressing plasmids were used to streak for isolated colonies on rich, selective LB agar supplemented with 25 μg/mL tetracycline to maintain the plasmid. All strains were incubated at 37° C. for 18-24 hrs.
(§6) On the day of testing, primary cultures were started by scraping off 5-10 colonies from the TSAB plates containing clinical strains or the tetracycline supplemented LB plates containing engineered strains. […]

In experiment [2] the test system is bacterial strains that express KPC β-lactamases. The experiment in a line: Standard BLI potentiation MIC / synergy MIC (sMIC) assays run in the presence of a β-lactam, KPC expressing strains. The following applies: more active for at least one KPC strain and/or better spectrum of activity than Avibactam; BLI in combination with a β-lactam. It is filed as cell-based.
Text: as §1, §2, §3, §4, §5, §6

For `O=C1N2C[C@@H](CC[C@H]2c2nnco2)N1OS(=O)(=O)O` [Compound 701, (2S,5R)-2-(1,3,4-oxadiazol-2-yl)-7-oxo-1,6-diazabicyclo[3.2.1]octan-6-yl hydrogen sulfate], the “activity against bacterial strains that express the class D cephalosporinase OXA-15, compared with Avibactam” value in experiment [1] was “more active than Avibactam”. The “activity and/or spectrum of activity against bacterial strains that express KPC β-lactamases, compared with Avibactam” value in experiment [2] is on record as “more active than Avibactam”.
Turning to `NCc1nnc([C@@H]2CC[C@@H]3CN2C(=O)N3OS(=O)(=O)O)o1` [Compound 702, (2S,5R)-2-(5-(aminomethyl)-1,3,4-oxadiazol-2-yl)-7-oxo-1,6-diazabicyclo[3.2.1]octan-6-yl hydrogen sulfate], the “activity against bacterial strains that express the class D cephalosporinase OXA-15, compared with Avibactam” value in experiment [1] is “more active than Avibactam”. Besides, in experiment [2], the “activity and/or spectrum of activity against bacterial strains that express KPC β-lactamases, compared with Avibactam” value is recorded as “more active than Avibactam”.
For the molecule `NCCc1nnc([C@@H]2CC[C@@H]3CN2C(=O)N3OS(=O)(=O)O)o1` [Compound 703, (2S,5R)-2-(5-(2-aminoethyl)-1,3,4-oxadiazol-2-yl)-7-oxo-1,6-diazabicyclo[3.2.1]octan-6-yl hydrogen sulfate], the “activity against bacterial strains that express the class D cephalosporinase OXA-15, compared with Avibactam” value in experiment [1] is on record as “more active than Avibactam”. Moreover, the “activity and/or spectrum of activity against bacterial strains that express KPC β-lactamases, compared with Avibactam” value in experiment [2] was “more active than Avibactam”.
For the molecule `N=C(N)NCCc1nnc([C@@H]2CC[C@@H]3CN2C(=O)N3OS(=O)(=O)O)o1` [Compound 705, (2S,5R)-2-(5-(2-guanidinoethyl)-1,3,4-oxadiazol-2-yl)-7-oxo-1,6-diazabicyclo[3.2.1]octan-6-yl hydrogen sulfate], in experiment [1], the “activity against bacterial strains that express the class D cephalosporinase OXA-15, compared with Avibactam” value was “more active than Avibactam”. Also, the “activity and/or spectrum of activity against bacterial strains that express KPC β-lactamases, compared with Avibactam” value in experiment [2] is listed as “more active than Avibactam”.
Regarding `NC(=O)c1nnc([C@@H]2CC[C@@H]3CN2C(=O)N3OS(=O)(=O)O)o1` [Compound 706, (2S,5R)-2-(5-carbamoyl-1,3,4-oxadiazol-2-yl)-7-oxo-1,6-diaza-bicyclo[3.2.1]octan-6-yl hydrogen sulfate], in experiment [1], the “activity against bacterial strains that express the class D cephalosporinase OXA-15, compared with Avibactam” value is “more active than Avibactam”. Also, the “activity and/or spectrum of activity against bacterial strains that express KPC β-lactamases, compared with Avibactam” value in experiment [2] is recorded as “more active than Avibactam”.
`O=C1N2C[C@@H](CC[C@H]2c2nnc(C3CNC3)o2)N1OS(=O)(=O)O` [Compound 708, (2S,5R)-2-(5-(azetidin-3-yl)-1,3,4-oxadiazol-2-yl)-7-oxo-1,6-diazabicyclo[3.2.1]octan-6-yl hydrogen sulfate]: the “activity against bacterial strains that express the class D cephalosporinase OXA-15, compared with Avibactam” value in experiment [1] is listed as “more active than Avibactam”. Besides, in experiment [2], the “activity and/or spectrum of activity against bacterial strains that express KPC β-lactamases, compared with Avibactam” value was “more active than Avibactam”.
For the molecule `N=C(N)N1CC(c2nnc([C@@H]3CC[C@@H]4CN3C(=O)N4OS(=O)(=O)O)o2)C1` [Compound 709, (2S,5R)-2-(5-(1-carbamimidoylazetidin-3-yl)-1,3,4-oxadiazol-2-yl)-7-oxo-1,6-diazabicyclo[3.2.1]octan-6-yl hydrogen sulfate], the “activity against bacterial strains that express the class D cephalosporinase OXA-15, compared with Avibactam” value in experiment [1] is given as “more active than Avibactam”. Moreover, the “activity and/or spectrum of activity against bacterial strains that express KPC β-lactamases, compared with Avibactam” value in experiment [2] is “more active than Avibactam”.
On to `O=C1N2C[C@@H](CC[C@H]2c2nnc(C3CCNC3)o2)N1OS(=O)(=O)O` (stereo partly drawn) [Compound 710, (2S,5R)-7-oxo-2-(5-(pyrrolidin-3-yl)-1,3,4-oxadiazol-2-yl)-1,6-diazabicyclo[3.2.1]octan-6-yl hydrogen sulfate], for which the “activity against bacterial strains that express the class D cephalosporinase OXA-15, compared with Avibactam” value in experiment [1] is “more active than Avibactam”. Moreover, in experiment [2], the “activity and/or spectrum of activity against bacterial strains that express KPC β-lactamases, compared with Avibactam” value is “more active than Avibactam”.
As to `O=C1N2C[C@@H](CC[C@H]2c2nnc(C3CCNCC3)o2)N1OS(=O)(=O)O` [Compound 711, (2S,5R)-7-oxo-2-(5-(piperidin-4-yl)-1,3,4-oxadiazol-2-yl)-1,6-diazabicyclo[3.2.1]octan-6-yl hydrogen sulfate], the “activity against bacterial strains that express the class D cephalosporinase OXA-15, compared with Avibactam” value in experiment [1] was “more active than Avibactam”. Also, the “activity and/or spectrum of activity against bacterial strains that express KPC β-lactamases, compared with Avibactam” value in experiment [2] is given as “more active than Avibactam”.
For the molecule `NCCCc1nnc([C@@H]2CC[C@@H]3CN2C(=O)N3OS(=O)(=O)O)o1` [Compound 720, (2S,5R)-2-(5-(3-aminopropyl)-1,3,4-oxadiazol-2-yl)-7-oxo-1,6-diazabicyclo[3.2.1]octan-6-yl hydrogen sulfate], the “activity against bacterial strains that express the class D cephalosporinase OXA-15, compared with Avibactam” value in experiment [1] is reported as “more active than Avibactam”. Besides, in experiment [2], the “activity and/or spectrum of activity against bacterial strains that express KPC β-lactamases, compared with Avibactam” value was “more active than Avibactam”.
Regarding `N=C(N)NCc1nnc([C@@H]2CC[C@@H]3CN2C(=O)N3OS(=O)(=O)O)s1` [Compound 721, (2S,5R)-2-(5-(guanidinomethyl)-1,3,4-thiadiazol-2-yl)-7-oxo-1,6-diazabicyclo[3.2.1]octan-6-yl hydrogen sulfate], in experiment [1], the “activity against bacterial strains that express the class D cephalosporinase OXA-15, compared with Avibactam” value is “more active than Avibactam”. The “activity and/or spectrum of activity against bacterial strains that express KPC β-lactamases, compared with Avibactam” value in experiment [2] is on record as “more active than Avibactam”.
On to `CNCCc1nnc([C@@H]2CC[C@@H]3CN2C(=O)N3OS(=O)(=O)O)o1` [Compound 722, (2S,5R)-2-(5-(2-(methylamino)ethyl)-1,3,4-oxadiazol-2-yl)-7-oxo-1,6-diazabicyclo[3.2.1]octan-6-yl hydrogen sulfate], for which the “activity against bacterial strains that express the class D cephalosporinase OXA-15, compared with Avibactam” value in experiment [1] is “more active than Avibactam”. The “activity and/or spectrum of activity against bacterial strains that express KPC β-lactamases, compared with Avibactam” value in experiment [2] is “more active than Avibactam”.
For the molecule `N=C(N)NCC1(c2nnc([C@@H]3CC[C@@H]4CN3C(=O)N4OS(=O)(=O)O)o2)CC1` [Compound 723, (2S,5R)-2-(5-(1-(guanidinomethyl)cyclopropyl)-1,3,4-oxadiazol-2-yl)-7-oxo-1,6-diazabicyclo[3.2.1]octan-6-yl hydrogen sulfate], the “activity against bacterial strains that express the class D cephalosporinase OXA-15, compared with Avibactam” value in experiment [1] is on record as “more active than Avibactam”. In addition, in experiment [2], the “activity and/or spectrum of activity against bacterial strains that express KPC β-lactamases, compared with Avibactam” value is recorded as “more active than Avibactam”.
As for `NC1(Cc2nnc([C@@H]3CC[C@@H]4CN3C(=O)N4OS(=O)(=O)O)o2)CC1` [Compound 724, (2S,5R)-2-(5-((1-aminocyclopropyl)methyl)-1,3,4-oxadiazol-2-yl)-7-oxo-1,6-diazabicyclo[3.2.1]octan-6-yl hydrogen sulfate], in experiment [1], the “activity against bacterial strains that express the class D cephalosporinase OXA-15, compared with Avibactam” value was “more active than Avibactam”. The “activity and/or spectrum of activity against bacterial strains that express KPC β-lactamases, compared with Avibactam” value in experiment [2] was “more active than Avibactam”.
On to `NC1CCN(CCc2nnc([C@@H]3CC[C@@H]4CN3C(=O)N4OS(=O)(=O)O)o2)CC1` [Compound 775, (2S,5R)-2-(5-(2-(4-aminopiperidin-1-yl)ethyl)-1,3,4-oxadiazol-2-yl)-7-oxo-1,6-diazabicyclo[3.2.1]octan-6-yl hydrogen sulfate], for which the “activity and/or spectrum of activity against bacterial strains that express KPC β-lactamases, compared with Avibactam” value in experiment [2] is given as “more active than Avibactam”.
Regarding `O=C1N2C[C@@H](CC[C@H]2c2nnc(N3CCNCC3)s2)N1OS(=O)(=O)O` [Compound 797, (2S,5R)-7-oxo-2-(5-(piperazin-1-yl)-1,3,4-thiadiazol-2-yl)-1,6-diazabicyclo[3.2.1]octan-6-yl hydrogen sulfate], the “activity against bacterial strains that express the class D cephalosporinase OXA-15, compared with Avibactam” value in experiment [1] is reported as “more active than Avibactam”.
